A short description of data set [1]: Particle-size distribution by laser diffraction. In kind it is physicochemical. The note with it: neat MgSt hydrate. The method, then: Particle-size distributions were determined using a laser diffraction system (series 2600, Malvern Instruments Ltd., Malvern, UK) equipped with a 63-mm lens (size range of 1.2-118 μm) and a stirred cell.
Data set [2] can be described thus: Percent water (free and bound) of neat MgSt hydrates. It is filed as physicochemical. The settings on record: neat MgSt hydrate. The method, then:
Thermal gravimetric analysis (Q50 TGA, TA Instruments) was carried out from 25 to 190° C. at a heating rate of 5° C./min. Data acquisition and analysis were conducted using TA Instruments software. FIG. 4 presents the TGA of MgSt-M and MgSt-D.

The source of these data is patent US20100316585A1, “Use of Magnesium Stearate Dihydrate for Lubrication of Solid Industrial or Consumer Products” (priority 2008, published 2010).

Regarding “magnesium stearate [MgSt-M, reference compound]”, in data set [1], the “Particle size (nominal mean particle size)” value amounted to 10.6 μm. Besides, in data set [2], the Dihydrate water came to 0%, the Free water worked out at 0.6%, the Monohydrate water amounted to 2.8% and the percent bound moisture came out at 2.8%.
Take magnesium stearate dihydrate [MgSt-D]: the “Particle size (nominal mean particle size)” value in data set [1] came to 14.3 μm. In data set [2], this substance had a Dihydrate water of 5.6%, a Monohydrate water of 0% and a percent bound moisture of 5.6%. Moreover, the Free water result in data set [2] (dihydrate) was “little or no free water”. For the same substance, the Free water in data set [2] (listed as MqSt-D, dihydrate) is reported as 0%.
